Results: patent publication US20240209022A1, “NOVEL PEPTIDE HAVING ANTI-INFLAMMATORY AND TISSUE REGENERATIVE ACTIONS” (KOREA RESEARCH INSTITUTE OF BIOSCIENCE AND BIOTECHNOLOGY, priority 2020, published 2024)

Tests used:
[1] = system: full-thickness skin defect wound-induced model; experiment: Full-thickness skin defect wound-induced model (tail); assay type: in vivo, C57BL/6J mice; settings: 120 μM, 25 μL applied once a day for 28 days; vs vehicle
Description: In order to confirm the tissue regeneration efficacy of the novel peptides, an experiment was conducted using a wound-induced model induced by a full-thickness skin defect of mouse's tail. For a full-thickness skin defect wound-induced model, 9-week-old specific pathogen free (SPF) male C57BL/6J mice were anesthetized, and then in order to indicate full-thickness wounding, a full-thickness wound with a size of 10 mm×3 mm was made on the dorsal part of the mouse's tail, about 1.0 cm away from the base of the mouse's tail, using an aseptic dissection mass No. 10. Bleeding was stopped by compressing the wound, and the wound was covered with a film spray dressing (Cavilon, 3M). For 28 days from the day of wound induction, Amuc_1409 or PEP001 to PEP013 were each dissolved in vehicle (50% ethanol, 20% propylene glycol, 30% water) at a concentration of 120 μM and then applied to the wound site by 25 μL per animal once a day. For the control group, the same volume of vehicle (50% ethanol, 20% propylene glycol, 30% water) was applied to the wound site. The test was terminated on day 29 after wound induction. In order to observe the wound healing effect, the wound sites of animals in each test group were individually photographed using a digital camera at a constant height from the wound for 28 days at 7-day intervals from the day of wound induction, and the wound area was measured using the Image J Soft program.

small intestine organoid = experiment: Small intestine organoid sprouting; assay type: cell-based, C57BL/6J mice; settings: 16 nM on days 0, 2, 4; day 5 of culture; vs PBS buffer
Description: In order to establish a small intestine organoid model, the small intestine of 15-week-old male C57BL/6J mice was cut longitudinally from the proximal end to the distal end, and cut transversely into about 5 mm long pieces. The small intestine tissue thus obtained was washed with refrigerated PBS containing 1% penicillin. Thereafter, the washed small intestine tissue was treated with dissociation buffer and filtered through a cell strainer to isolate crypts. The isolated crypt was cultured in Matrigel and Organoid Growth Medium (Intesticult™) mixed at a ratio of 1:1, Matrigel was solidified at 37° C. for 20 minutes in a 12 well plate, and then medium (500 μL/well) was added. The medium was replaced after 4 days, and subculture was performed on day 7.
For novel peptide screening, organoids 3D cultured in medium and Matrigel support were dispensed into 3 wells per group using a 12-well plate and 50 organoids per well. On days 0, 2, and 4 of culture, the organoids were treated with novel tetrapeptides PEP006, PEP007, PEP008, PEP009, and PEP010 and novel tripeptides PEP011, PEP012, and PEP013 at a concentration of 16 nM as described above, and the number of lobes of sprouted organoids on day 5 of culture was examined and analyzed for comparison. The control group was treated with PBS buffer in the same manner.

[2] = system: non-alcoholic hepatitis model; experiment: High-fat diet-induced non-alcoholic steatohepatitis model, liver gene expression; assay type: in vivo, C57BL/6J mice; settings: RT-qPCR; vs PBS buffer group
Description: A non-alcoholic hepatitis model was induced by feeding a high-fat diet to 8-week-old SPF male C57BL/6J mice. The experiment for groups administered with Amuc_1409 and PEP001 to PEP005 was performed as follows. Mice fed a high-fat diet for 45 weeks were fed a high-fat diet for an additional 3 weeks, and Amuc_1409 was dissolved in PBS buffer at a concentration of 2.4 μM and then orally administered to the mice by 150 μL per animal at the same time once a day until the end of the experiment, or mice fed a high-fat diet for 8 weeks were fed a high-fat diet for an additional 3 weeks, and PEP001, PEP002, PEP003, PEP004, or PEP005 was dissolved in PBS buffer at a concentration of 2.4 μM and then orally administered to the mice by 150 μL per animal at the same time once a day until the end of the experiment. To the control group, PBS buffer was orally administered in the same manner. The experiment for groups administered with PEP006 to PEP013 was performed as follows. The non-alcoholic hepatitis model was induced by ad libitum feeding of a high-fat diet for 32, 50, or 53 weeks. Mice fed a high-fat diet for 50 weeks were fed a high-fat diet for an additional 3 weeks, and a novel tetrapeptide PEP006, PEP007, PEP008, PEP009, or PEP010 was dissolved in PBS buffer at a concentration of 0.2 μg/150 μL and then orally administered to the mice by 150 μL per animal at the same time until the end of the test, and mice fed a high-fat diet for 53 weeks were fed a high-fat diet for an additional 3 weeks, and a novel […] PEP011, PEP012, or PEP013 was dissolved in PBS buffer at a concentration of 0.2 μg/150 μL and then orally administered to the mice by 150 μL per animal at the same time until the end of the test. To the control group, PBS buffer was orally administered in the same manner. At the end of the experiment, a part of the liver harvested was homogenized with Trizol to extract RNA. Reverse transcriptase was added to the obtained RNA and reacted to synthesize cDNA, and SYBR Green and primers were added to perform quantitative real-time PCR (RT-qPCR), and then the expression levels of genes such as Tnfα, Il-1β, Il-10, and Il-1rn were quantified.

Substance | wound area [1] | wound size (visually confirmed) [1] | number of lobes of sprouted organoids (small intestine organoid) | Ifnγ gene expression in liver tissue [2] | Il-1p gene expression in liver tissue [2] | Il-6 gene expression in liver tissue [2] | Tnfα gene expression in liver tissue [2]
IGAY (PEP008) | significantly decreased | rapidly decreased | significantly increased | decreased close to a significant level | significantly decreased | tended to decrease | significantly decreased
RGAY (PEP007) | significantly decreased | rapidly decreased | significantly increased | tended to decrease |  | tended to decrease | significantly decreased
SGAY (PEP009) | significantly decreased | rapidly decreased | significantly increased | tended to decrease | significantly decreased | tended to decrease | tended to decrease
AGAY (PEP006) | significantly decreased | rapidly decreased | significantly increased |  |  |  | tended to decrease
